From ChEMBL document CHEMBL3872276, “Antiproliferative activity and SARs of caffeic acid esters with mono-substituted phenylethanols moiety” (Bioorg Med Chem Lett, 2017)

What was measured:
cells [1] = conditions: Homo sapiens, DU-145, 48 h
cells [2] = conditions: Homo sapiens, MCF7, 48 h
cells [3] = conditions: Homo sapiens, ECa-109, 48 h
cells [4] = conditions: Homo sapiens, HeLa, 48 h

Structure (SMILES)	IC50 (cells [1]) [µM]	IC50 (cells [2]) [µM]	IC50 (cells [3]) [µM]	IC50 (cells [4]) [µM]
O=C(/C=C/c1ccc(O)c(O)c1)OCCc1ccc(F)cc1	12.8	29.9	51.9	35.8
Cc1ccc(CCOC(=O)/C=C/c2ccc(O)c(O)c2)cc1	36.9	20.6	20.9	25.8
COc1ccc(CCOC(=O)/C=C/c2ccc(O)c(O)c2)cc1	67.5	78	111	67.7
O=C(/C=C/c1ccc(O)c(O)c1)OCCc1ccc(Br)cc1	35.4	28.2	40.3	56.8
O=C(/C=C/c1ccc(O)c(O)c1)OCCc1ccccc1O	24.4	21.8	40.2	29.4
CCc1ccccc1CCOC(=O)/C=C/c1ccc(O)c(O)c1	4.7	8.7	7.3	4.2
Cc1ccccc1CCOC(=O)/C=C/c1ccc(O)c(O)c1	6.6	2.5	8.2	2.3
CC(C)Oc1ccccc1CCOC(=O)/C=C/c1ccc(O)c(O)c1	9.1	5.6	15.1	3.2
Cc1cccc(CCOC(=O)/C=C/c2ccc(O)c(O)c2)c1	21.4	26.3	16.7	5.4
O=C(/C=C/c1ccc(O)c(O)c1)OCCc1ccc(Cl)cc1	22.1	17.6	28.4	22.5
COc1ccccc1CCOC(=O)/C=C/c1ccc(O)c(O)c1	2	7.1	5.9	1.6
O=C(/C=C/c1ccc(O)c(O)c1)OCCc1ccccc1 [CAFFEIC ACID PHENETHYL ESTER]	16	28.8	47.5	33
CC(=O)O[C@H]1C(=O)[C@@]2(C)[C@H]([C@H](OC(=O)c3ccccc3)[C@]3(O)C[C@H](OC(=O)[C@H](O)[C@@H](NC(=O)c4ccccc4)c4ccccc4)C(C)=C1C3(C)C)[C@]1(OC(C)=O)CO[C@@H]1C[C@@H]2O [PACLITAXEL]	0.011	0.63	0.94	0.036
O=C(/C=C/c1ccc(O)c(O)c1)OCCc1ccc(O)cc1 [TYROSOL CAFFEATE]	51.9	53.2	49.4	45.8
